#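 All cell lines were grown in 96-well plates and treated with compound for 48 hours. The concentration for 50% growth inhibition is given as GI50. TGI: total growth inhibition.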
# How the values were obtained:
# Experiment in all cases: DTP human tumour cell line panel, 48 h
# LXFL 529 NSCLC = system: LXFL 529 NSCLC
# DLD-1 colon = system: DLD-1 colon
# KM20L2 colon = system: KM20L2 colon
# DMS 114 small cell lung = system: DMS 114 small cell lung
# HOP-18 NSCLC = system: HOP-18 NSCLC
# RXF-631 renal = system: RXF-631 renal
# DMS 273 small cell lung = system: DMS 273 small cell lung
# HS 578T breast = system: HS 578T breast
# PC-3 prostate = system: PC-3 prostate
# MDA-MB-231 breast = system: MDA-MB-231 breast
# DU-145 prostate = system: DU-145 prostate
# MCF7 breast = system: MCF7 breast
# NCI/ADR-RES ovarian = system: NCI/ADR-RES ovarian
SMILES,TGI (LXFL 529 NSCLC),TGI (DLD-1 colon),TGI (KM20L2 colon),TGI (DMS 114 small cell lung),TGI (HOP-18 NSCLC),TGI (DMS 273 small cell lung),TGI (HS 578T breast),TGI (PC-3 prostate),TGI (MDA-MB-231 breast),TGI (DU-145 prostate),TGI (MCF7 breast),TGI (NCI/ADR-RES ovarian),other results
CC(C)c1cccc(C(C)C)c1NC(=S)Nc1ccccc1,> 100 µM,> 100 µM,> 100 µM,> 100 µM,> 100 µM,> 100 µM,,,,,,,TGI (RXF-631 renal): > 100 µM
CCCCCCCCCCCCCCCc1ccc(C(=O)C[n+]2ccccc2)cc1,,,,,,,4.25 µM,3.77 µM,2.23 µM,2.44 µM,,,GI50 (HS 578T breast): 1.75 µM; GI50 (PC-3 prostate): 1.23 µM; GI50 (MDA-MB-231 breast): 0.886 µM; GI50 (DU-145 prostate): 1.2 µM
Nc1cccc2cc(S(=O)(=O)Nc3ccc(C(=O)O)cc3)ccc12,,,,,,,> 100 µM,> 100 µM,> 100 µM,> 100 µM,> 100 µM,> 100 µM,
N=C(N)c1ccc(-c2ccc(-c3ccccc3)o2)cc1,,,,,,,7.04 µM,5.97 µM,4.08 µM,7.93 µM,,5.85 µM,GI50 (HS 578T breast): 2.58 µM; GI50 (PC-3 prostate): 2.28 µM; GI50 (MDA-MB-231 breast): 1.93 µM; GI50 (DU-145 prostate): 2.72 µM; GI50 (NCI/ADR-RES ovarian): 2.2 µM
CCN(CC)CCSc1nc2c([N+](=O)[O-])cccc2[nH]1,> 100 µM,,,> 100 µM,,> 100 µM,,,,,,,TGI (RXF-631 renal): > 100 µM
COc1ccc(C2C(Cl)C(=O)N2NC(=O)c2ccc(NC(C)=O)cc2)cc1OC (stereo not given),> 100 µM,,,,> 100 µM,,,,,,,,
O=C(Nc1ccc(-n2cc(-c3ccncc3)c(-c3ccc(O)c(Cl)c3)n2)cc1)c1ccc(Cl)c(Cl)c1,,,,,,,> 32.5 µM,> 32.5 µM,1.11 µM,> 32.5 µM,> 32.5 µM,> 32.5 µM,GI50 (HS 578T breast): 0.791 µM; GI50 (PC-3 prostate): 1.35 µM; GI50 (MCF7 breast): 2.04 µM; GI50 (MDA-MB-231 breast): 0.51 µM; GI50 (DU-145 prostate): 3.91 µM; GI50 (NCI/ADR-RES ovarian): 2.02 µM
CSc1nc(NC2OC(CO)C(O)C(O)C2O)c(N)c(=O)n1C (stereo not given),,> 100 µM,> 100 µM,> 100 µM,> 100 µM,> 100 µM,,,,,> 100 µM,> 100 µM,
CC(C)=CCC/C(C)=C/CC/C(C)=C/C(O)c1ccccc1 (stereo not given),31.8 µM,34.4 µM,36 µM,39.4 µM,,,,,,,,,TGI (RXF-631 renal): 34.1 µM
NC(=O)OCc1c(O)c2c(c(O)c1COC(N)=O)C(=O)C=CC2=O,> 100 µM,> 100 µM,> 100 µM,> 100 µM,> 100 µM,> 100 µM,,,,,,,
CNC1=C(C)C(=O)C2=C(C1=O)C(COC(N)=O)C1(OC)C3NC3CN21 (stereo not given),,,,,,,30.5 µM,41.8 µM,,,10.6 µM,,
